Numbered stars: 1 amine (or outer) side, 2 acyl side, 3 side chain; on linkers, the order of the positions; unused ones are H or OH. Bridge positions count the residues as written; N and C are the ends. Square brackets hold non-standard residues; d marks the D form. Peptide text beside a SMILES is read from it. X1 = O=C([C@@]1(N[*:1])CCc2ccccc2C1)[*:2]; Atc(2S) = N[C@@]1(C(=O)O)CCc2ccccc2C1; Mpa = O=C(O)CCS; Sar = CNCC(=O)O
Tests used:
Vasopressin V2 receptor = Vasopressin V2 receptor (Rattus norvegicus, UniProt Q00788); test: Compound was evaluated for its dissociation constant (Kd) to rat kidney Vasopressin V2 receptor
Vasopressin V2 receptor, sequence (Q00788 whole entry): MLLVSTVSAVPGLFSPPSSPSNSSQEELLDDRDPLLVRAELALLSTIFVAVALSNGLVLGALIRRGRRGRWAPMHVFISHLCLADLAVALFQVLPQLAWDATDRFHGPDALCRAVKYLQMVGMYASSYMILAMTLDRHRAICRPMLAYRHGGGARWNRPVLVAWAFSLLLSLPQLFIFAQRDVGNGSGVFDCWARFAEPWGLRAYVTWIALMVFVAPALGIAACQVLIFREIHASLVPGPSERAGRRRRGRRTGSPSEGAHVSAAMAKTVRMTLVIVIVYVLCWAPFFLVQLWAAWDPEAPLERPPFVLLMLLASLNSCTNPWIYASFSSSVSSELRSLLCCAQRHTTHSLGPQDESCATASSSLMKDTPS

Vasopressin V1 receptor = Vasopressin V1 receptor (Rattus norvegicus, UniProt P48974+P30560); test: Compound was evaluated for its dissociation constant (Kd) to rat liver Vasopressin V1 receptor
[1] = target: Oxytocin receptor (Cavia porcellus); test: Compound was evaluated for its dissociation constant (Kd) to guinea pig myometrial Oxytocin receptor

Row | SMILES | Kd (Vasopressin V2 receptor) [µM] | Kd (Vasopressin V1 receptor) [µM] | Kd [1] [µM]
1 | CC[C@H](C)[C@@H]1NC(=O)[C@@H](Cc2ccccc2)NC(=O)CCSSC[C@@H](C(=O)N(C)CC(=O)N[C@@H](CCCNC(=N)N)C(=O)NCC(N)=O)NC(=O)[C@H](CC(N)=O)NC(=O)[C@H](CCC(N)=O)NC1=O | 0.421 | – | –
2 | CC[C@H](C)[C@@H]1NC(=O)[C@@H]2c3[nH]c4ccccc4c3CCN2C(=O)CCSSC[C@H](C(=O)N(C)CC(=O)N[C@@H](CCCN=C(N)N)C(=O)NCC(N)=O)NC(=O)[C@H](CC(N)=O)NC(=O)[C@H](CCC(N)=O)NC1=O | > 100 | 0.0178 | –
3 | CC[C@H](C)[C@@H]1NC(=O)[C@@H](Cc2c[nH]c3ccccc23)NC(=O)CC2(CCCCC2)SSC[C@@H](C(=O)N(C)CC(=O)N[C@@H](CCCNC(=N)N)C(=O)NCC(N)=O)NC(=O)[C@H](CC(N)=O)NC(=O)[C@H](CCC(N)=O)NC1=O | 0.003 | – | 0.006
4 | CC[C@H](C)[C@@H]1NC(=O)[C@@H](Cc2c[nH]c3ccccc23)NC(=O)CCSSC[C@@H](C(=O)N(C)CC(=O)N[C@@H](CCCNC(=N)N)C(=O)NCC(N)=O)NC(=O)[C@H](CC(N)=O)NC(=O)[C@H](CCC(N)=O)NC1=O | 4.96 | 0.888 | –
5 | CC[C@H](C)[C@@H]1NC(=O)[C@@]2(CCc3ccccc3C2)NC(=O)CCSSC[C@@H](C(=O)N(C)CC(=O)N[C@@H](CCCN=C(N)N)C(=O)NCC(N)=O)NC(=O)[C@H](CC(N)=O)NC(=O)[C@H](CCC(N)=O)NC1=O ([Mpa][Atc(2S)]IQNC[Sar]RG-NH2; disulfide 1-6) | 2.29 | 17.6 | –
6 | CC[C@H](C)[C@@H]1NC(=O)[C@]2(CCc3ccccc3C2)NC(=O)CCSSC[C@@H](C(=O)N(C)CC(=O)N[C@@H](CCCN=C(N)N)C(=O)NCC(N)=O)NC(=O)[C@H](CC(N)=O)NC(=O)[C@H](CCC(N)=O)NC1=O ([Mpa][X1]IQNC[Sar]RG-NH2; disulfide 1-6) | 5.34 | 2.64 | –
7 | CC[C@H](C)[C@@H]1NC(=O)[C@@H]2c3[nH]c4ccccc4c3CCN2C(=O)CCSSC[C@H](C(=O)N(C)CC(=O)N[C@@H](CCCN=C(N)N)C(=O)NCC(N)=O)NC(=O)[C@H](CC(N)=O)NC(=O)[C@H](CCC(N)=O)NC1=O (single isomer, unassigned) | > 100 | 0.0635 | –

Reference: ChEMBL document CHEMBL1132683 (Bioorg Med Chem Lett, 1999)
